In US20220402916A1, “SMALL MOLECULE INHIBITORS OF KRAS G12C MUTANT” (Merck Sharp & Dohme Corp., priority 2019, published 2022) one finds IC50 data, which are given here for 16 compounds.

Where two headings read alike, the source gives them in different places.

Experiment [1] concerns the target T1, Biotinylated KRAS G12C protein (Homo sapiens, UniProt P01116, C118S/C51S/C80L/G12C).
T1 construct: 183 amino acids; biotin on K10
The experiment can be described thus: SOS-catalyzed nucleotide exchange assay. It counts as biochemical. Particulars: apparent potency; preincubation time of 60 minutes prior to addition of SOS.

The test system of the next experiment is NCI-H358 cells. Kind of experiment: Cellular phospho-ERK assay. The experiment is classed as cell-based. Particulars: NCI-H358 cells, 2 hour incubation, ratio of p-Erk vs total Erk, read-out: IC50. On the procedure:
NCI-H358 cells (ATCC® CRL-5807™) were cultured in T150 flask in growth medium (RPMI medium 1640-GlutaMAX™-1 (ThermoFisher Scientific 61870) containing 10% fetal bovine serum (ThermoFisher Scientific 10091148)). The cells were harvested in growth medium after TrypLE (ThermoFisher scientific 12604021) digestion and were seeded in 384-well collagen coated cell culture plate (Corning 356702) at a density of 15,000 cells/well, and incubated at 37° C., 5% CO2 overnight. The compound dose-response titrations were prepared and appropriate amounts of compounds were dispensed in 384-well intermediate plate using Echo 550 liquid handler. RPMI medium 1640-GlutaMAX™-I were added to the intermediate plate and transferred to 384-well cell culture plate, which was incubated at 37° C., 5% CO2 for 2 hours. After removal of medium from the plate, cells were lysed in lysis buffer from Alpha SureFire® Ultra™ Multiplex p-Erk and total Erk assay kit (PerkinElmer MPSU-PTERK) containing Halt™ Protease and Phosphotase inhibitor cocktail (ThermoFisher Scientific 78446) at room temperature with constant shaking at 300 rpm for 30 minutes. The cell lysates were then transferred to OptiPlate-384 plate (PerkinElmer 6005620) and the phosphorylation of Erk and total Erk levels were detected by Alpha SureFire Ultra Multiplex p-Erk kit (PerkinElmer MPSU-PTERK) following the manufacturer's protocol. Assay plates were read on an EnVision Multimode Plate Reader (PerkinElmer) and the ratio of p-Erk vs total Erk in each well was used as the final readout. Dose response curves were analyzed using a 4-parameter logistic model to calculate IC50 values using spotfire software.

T1 sequence (P01116 with tags, fused parts or gaps isoform P01116-2 G12C/C51S/C80L/C118S): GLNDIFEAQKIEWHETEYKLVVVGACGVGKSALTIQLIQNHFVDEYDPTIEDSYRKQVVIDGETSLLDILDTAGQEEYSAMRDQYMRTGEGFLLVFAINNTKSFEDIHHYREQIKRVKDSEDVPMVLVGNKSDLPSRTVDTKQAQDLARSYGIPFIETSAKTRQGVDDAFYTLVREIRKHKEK

`C=CC(=O)N1CCN(c2cc(C(=O)NC[C@@H]3CC(F)(F)CN3)nc3c2CCN(c2cccc4cccc(C)c24)C3)C[C@@H]1CC#N` [Compound 80, 4-((S)-4-acryloyl-3-(cyanomethyl)piperazin-1-yl)-N-(((S)-4,4-difluoropyrrolidin-2-yl)methyl)-7-(8-methylnaphthalen-1-yl)-5,6,7,8-tetrahydro-1,7-naphthyridine-2-carboxamide]: the IC50 in experiment [1] worked out at 91 nM; in the experiment on NCI-H358 cells (Homo sapiens, NCI-H358, 2 h) it was 6360 nM.
As for `C=CC(=O)N1CCN(c2cc(C(=O)NC(C)CN3CCC(F)(F)C3)nc3c2CCN(c2cccc4cccc(C)c24)C3)C[C@@H]1CC#N` (single isomer, unassigned) [Compound 72, 4-((S)-4-acryloyl-3-(cyanomethyl)piperazin-1-yl)-N—((S or R)-1-(3,3-difluoropyrrolidin-1-yl)propan-2-yl)-7-(8-methylnaphthalen-1-yl)-5,6,7,8-tetrahydro-1,7-naphthyridine-2-carboxamide], the IC50 in experiment [1] was 529 nM; in the experiment with NCI-H358 cells it was 25400 nM.
Taken in the same sequence, the figures for `C=CC(=O)N1CCN(c2cc(C(=O)NC(C)CN3CCC(C)(O)C3)nc3c2CCN(c2cccc4cccc(C)c24)C3)C[C@@H]1CC#N` (single isomer, unassigned) [Compound 75, 4-((S)-4-acryloyl-3-(cyanomethyl)piperazin-1-yl)-N-((R or S)-1-((S or R)-3-hydroxy-3-methylpyrrolidin-1-yl)propan-2-yl)-7-(8-methylnaphthalen-1-yl)-5,6,7,8-tetrahydro-1,7-naphthyridine-2-carboxamide] were 7.2 nM and 68 nM.
As for `C=CC(=O)N1CCN(c2cc(C(=O)NCC3(N)CCCCC3)nc3c2CCN(c2cccc4cccc(C)c24)C3)C[C@@H]1CC#N` [Compound 89, (S)-4-(4-acryloyl-3-(cyanomethyl)piperazin-1-yl)-N-((1-aminocyclohexyl)methyl)-7-(8-methylnaphthalen-1-yl)-5,6,7,8-tetrahydro-1,7-naphthyridine-2-carboxamide], the IC50 in experiment [1] was found to be 15 nM; in the experiment with NCI-H358 cells (Homo sapiens, NCI-H358, 2 h), 5680 nM.
Taken in the same sequence, the figures for `C=CC(=O)N1CCN(c2cc(C(=O)N[C@H](C)CN)nc3c2CCN(c2cccc4ccccc24)C3)C[C@@H]1CC#N` [Compound 61, 4-((S)-4-acryloyl-3-(cyanomethyl)piperazin-1-yl)-N—((R)-1-aminopropan-2-yl)-7-(naphthalen-1-yl)-5,6,7,8-tetrahydro-1,7-naphthyridine-2-carboxamide] were 13 nM and 1240 nM.
For the compound `C=CC(=O)N1CCN(c2cc(C(=O)NC3(CC#N)CNC3)nc3c2CCN(c2cccc4cccc(C)c24)C3)C[C@@H]1CC#N` [Compound 100, (S)-4-(4-acryloyl-3-(cyanomethyl)piperazin-1-yl)-N-(3-(cyanomethyl)azetidin-3-yl)-7-(8-methylnaphthalen-1-yl)-5,6,7,8-tetrahydro-1,7-naphthyridine-2-carboxamide], the IC50 in experiment [1] was found to be 22 nM; in the experiment with NCI-H358 cells (Homo sapiens, NCI-H358, 2 h) it was 5880 nM.
With `C=CC(=O)N1CCN(c2cc(C(=O)N[C@H](C)CN3CC(C)(O)C3)nc3c2CCN(c2cccc4cccc(C)c24)C3)C[C@@H]1CC#N` [Compound 70, 4-((S)-4-acryloyl-3-(cyanomethyl)piperazin-1-yl)-N-((R)-1-(3-hydroxy-3-methylazetidin-1-yl)propan-2-yl)-7-(8-methylnaphthalen-1-yl)-5,6,7,8-tetrahydro-1,7-naphthyridine-2-carboxamide], the IC50 in experiment [1] is 2.2 nM; in the experiment with NCI-H358 cells (Homo sapiens, NCI-H358, 2 h) it was 57 nM.
In the case of `C=CC(=O)N1CCN(c2cc(C(=O)NCC3CCCNC3)nc3c2CCN(c2cccc4cccc(C)c24)C3)C[C@@H]1CC#N` (mixture of isomers) [Compound 106, 4-((S)-4-acryloyl-3-(cyanomethyl)piperazin-1-yl)-7-(8-methylnaphthalen-1-yl)-N-(((R)-piperidin-3-yl)methyl)-5,6,7,8-tetrahydro-1,7-naphthyridine-2-carboxamide, as a mixture with 4-((S)-4-acryloyl-3-(cyanomethyl)piperazin-1-yl)-7-(8-methylnaphthalen-1-yl)-N-(((S)-piperidin-3-yl)methyl)-5,6,7,8-tetrahydro-1,7-naphthyridine-2-carboxamide], the IC50 in experiment [1] was 33 nM; in the experiment on NCI-H358 cells (Homo sapiens, NCI-H358, 2 h), 5240 nM.
Taken in the same sequence, the figures for `C=CC(=O)N1CCN(c2cc(C(=O)N[C@H](C)CN)nc3c2CCN(c2cccc4cccc(C)c24)C3)C[C@@H]1CC#N` [Compound 67, 4-((S)-4-acryloyl-3-(cyanomethyl)piperazin-1-yl)-N—((R)-1-aminopropan-2-yl)-7-(8-methylnaphthalen-1-yl)-5,6,7,8-tetrahydro-1,7-naphthyridine-2-carboxamide] were 5.9 nM and 433 nM.
Taken in the same sequence, the figures for `C=CC(=O)N1CCN(c2cc(C(=O)NCC3(N)CCCCCC3)nc3c2CCN(c2cccc4cccc(C)c24)C3)C[C@@H]1CC#N` [Compound 91, (S)-4-(4-acryloyl-3-(cyanomethyl)piperazin-1-yl)-N-((1-aminocycloheptyl)methyl)-7-(8-methylnaphthalen-1-yl)-5,6,7,8-tetrahydro-1,7-naphthyridine-2-carboxamide] were 12 nM and 7860 nM.
On the same counts, the results for `C=CC(=O)N1CCN(c2cc(C(=O)N[C@@H](C)CN)nc3c2CCN(c2cccc4ccccc24)C3)C[C@@H]1CC#N` [Compound 62, 4-((S)-4-acryloyl-3-(cyanomethyl)piperazin-1-yl)-N-((S)-1-aminopropan-2-yl)-7-(naphthalen-1-yl)-5,6,7,8-tetrahydro-1,7-naphthyridine-2-carboxamide] are 51 nM and 2410 nM.
Turning to `C=CC(=O)N1CCN(c2cc(C(=O)NC[C@H]3CC(F)(F)CN3)nc3c2CCN(c2cccc4cccc(C)c24)C3)C[C@@H]1CC#N` [Compound 81, 4-((S)-4-acryloyl-3-(cyanomethyl)piperazin-1-yl)-N-(((R)-4,4-difluoropyrrolidin-2-yl)methyl)-7-(8-methylnaphthalen-1-yl)-5,6,7,8-tetrahydro-1,7-naphthyridine-2-carboxamide], the IC50 is 29 nM in experiment [1] and 2970 nM with NCI-H358 cells (Homo sapiens, NCI-H358, 2 h).
Taken in the same sequence, the figures for `C=CC(=O)N1CCN(c2cc(C(=O)NCC[C@H]3CCCN3)nc3c2CCN(c2cccc4cccc(C)c24)C3)C[C@@H]1CC#N` [Compound 104, 4-((S)-4-acryloyl-3-(cyanomethyl)piperazin-1-yl)-7-(8-methylnaphthalen-1-yl)-N-(2-((R)-pyrrolidin-2-yl)ethyl)-5,6,7,8-tetrahydro-1,7-naphthyridine-2-carboxamide] were 12 nM and 4900 nM.
On the same counts, the results for `C=CC(=O)N1CCN(c2cc(C(=O)NCCC3CCCCN3)nc3c2CCN(c2cccc4cccc(C)c24)C3)C[C@@H]1CC#N` (mixture of isomers) [Compound 105, 4-((S)-4-acryloyl-3-(cyanomethyl)piperazin-1-yl)-7-(8-methylnaphthalen-1-yl)-N-(2-((R)-piperidin-2-yl)ethyl)-5,6,7,8-tetrahydro-1,7-naphthyridine-2-carboxamide, as a mixture with 4-((S)-4-acryloyl-3-(cyanomethyl)piperazin-1-yl)-7-(8-methylnaphthalen-1-yl)-N-(2-((S)-piperidin-2-yl)ethyl)-5,6,7,8-tetrahydro-1,7-naphthyridine-2-carboxamide] are 17 nM and 4890 nM.
On the same counts, the results for `C=CC(=O)N1CCN(c2cc(C(=O)NCC3CCCCN3)nc3c2CCN(c2cccc4cccc(C)c24)C3)C[C@@H]1CC#N` (mixture of isomers) [Compound 99, 4-((S)-4-acryloyl-3-(cyanomethyl)piperazin-1-yl)-7-(8-methylnaphthalen-1-yl)-N-(((R)-piperidin-2-yl)methyl)-5,6,7,8-tetrahydro-1,7-naphthyridine-2-carboxamide, as a mixture with 4-((S)-4-acryloyl-3-(cyanomethyl)piperazin-1-yl)-7-(8-methylnaphthalen-1-yl)-N-(((S)-piperidin-2-yl)methyl)-5,6,7,8-tetrahydro-1,7-naphthyridine-2-carboxamide] are 8.3 nM and 1740 nM.
Consider `C=C(F)C(=O)N1CCN(c2cc(C(=O)N[C@H](C)CN(C)C)nc3c2CCN(c2cccc4cccc(C)c24)C3)C[C@@H]1CC#N` [Compound 78, 4-((S)-3-(cyanomethyl)-4-(2-fluoroacryloyl)piperazin-1-yl)-N-((R)-1-(dimethylamino)propan-2-yl)-7-(8-methylnaphthalen-1-yl)-5,6,7,8-tetrahydro-1,7-naphthyridine-2-carboxamide], for which the IC50 was determined as 8.3 nM in experiment [1] and 1250 nM with NCI-H358 cells (Homo sapiens, NCI-H358, 2 h).

For orientation: IC50 means the concentration needed to halve the response being measured.
